Values belong to the molecule of their own block, whether it stands above or below them.
Tests used:
[1] = target: T1, Aurora kinase A (Homo sapiens) (UniProt O14965); experiment: Selectivity interaction (Kinase panel (literature)) EUB0001199aCl STK6; conditions: at 1 µM
T1 sequence (whole entry): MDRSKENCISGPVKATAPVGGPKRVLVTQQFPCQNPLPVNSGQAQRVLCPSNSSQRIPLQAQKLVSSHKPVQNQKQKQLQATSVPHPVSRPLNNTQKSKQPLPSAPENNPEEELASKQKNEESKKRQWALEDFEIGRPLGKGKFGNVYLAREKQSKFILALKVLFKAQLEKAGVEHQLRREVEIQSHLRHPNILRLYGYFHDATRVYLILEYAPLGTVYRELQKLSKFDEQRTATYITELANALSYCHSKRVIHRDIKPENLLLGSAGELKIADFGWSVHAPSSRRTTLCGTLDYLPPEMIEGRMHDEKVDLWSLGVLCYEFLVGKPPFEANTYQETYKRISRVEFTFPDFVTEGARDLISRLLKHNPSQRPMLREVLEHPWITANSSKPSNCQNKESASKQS

[2] = target: Phosphatidylinositol 4-kinase alpha (Homo sapiens, UniProt P42356); experiment: Selectivity interaction (Kinase panel (literature)) EUB0001199aCl PI4KA; conditions: at 1 µM
[3] = target: T2, MAP/microtubule affinity-regulating kinase 4 (Homo sapiens) (UniProt Q96L34); experiment: Selectivity interaction (KinomeScan (DiscoverX)) EUB0000618a MARK4; conditions: at 10 µM
T2 sequence (whole entry): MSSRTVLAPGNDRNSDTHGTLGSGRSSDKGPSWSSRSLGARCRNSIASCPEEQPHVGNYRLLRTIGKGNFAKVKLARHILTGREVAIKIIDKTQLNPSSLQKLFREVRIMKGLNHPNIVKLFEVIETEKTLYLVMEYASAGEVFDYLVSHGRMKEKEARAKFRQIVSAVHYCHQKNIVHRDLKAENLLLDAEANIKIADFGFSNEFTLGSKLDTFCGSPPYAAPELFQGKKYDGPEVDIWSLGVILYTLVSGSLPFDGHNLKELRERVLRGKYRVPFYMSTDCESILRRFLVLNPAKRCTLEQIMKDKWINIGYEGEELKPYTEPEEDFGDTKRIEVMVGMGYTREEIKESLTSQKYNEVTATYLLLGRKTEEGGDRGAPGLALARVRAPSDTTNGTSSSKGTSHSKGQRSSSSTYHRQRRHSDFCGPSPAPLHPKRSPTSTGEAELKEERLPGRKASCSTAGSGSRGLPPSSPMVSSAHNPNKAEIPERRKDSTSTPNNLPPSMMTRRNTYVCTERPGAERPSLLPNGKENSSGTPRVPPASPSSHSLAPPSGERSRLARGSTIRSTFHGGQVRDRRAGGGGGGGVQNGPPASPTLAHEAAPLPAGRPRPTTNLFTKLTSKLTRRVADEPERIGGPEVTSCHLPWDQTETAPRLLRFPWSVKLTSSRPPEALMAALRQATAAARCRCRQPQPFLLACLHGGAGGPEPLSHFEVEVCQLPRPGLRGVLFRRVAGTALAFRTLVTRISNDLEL

[4] = target: MAP/microtubule affinity-regulating kinase 3 (Homo sapiens) (UniProt P27448); experiment: Selectivity interaction (KinomeScan (DiscoverX)) EUB0000607a MARK3; conditions: at 10 µM
MAP/microtubule affinity-regulating kinase 3 (Homo sapiens), sequence (P27448 whole entry, looked up): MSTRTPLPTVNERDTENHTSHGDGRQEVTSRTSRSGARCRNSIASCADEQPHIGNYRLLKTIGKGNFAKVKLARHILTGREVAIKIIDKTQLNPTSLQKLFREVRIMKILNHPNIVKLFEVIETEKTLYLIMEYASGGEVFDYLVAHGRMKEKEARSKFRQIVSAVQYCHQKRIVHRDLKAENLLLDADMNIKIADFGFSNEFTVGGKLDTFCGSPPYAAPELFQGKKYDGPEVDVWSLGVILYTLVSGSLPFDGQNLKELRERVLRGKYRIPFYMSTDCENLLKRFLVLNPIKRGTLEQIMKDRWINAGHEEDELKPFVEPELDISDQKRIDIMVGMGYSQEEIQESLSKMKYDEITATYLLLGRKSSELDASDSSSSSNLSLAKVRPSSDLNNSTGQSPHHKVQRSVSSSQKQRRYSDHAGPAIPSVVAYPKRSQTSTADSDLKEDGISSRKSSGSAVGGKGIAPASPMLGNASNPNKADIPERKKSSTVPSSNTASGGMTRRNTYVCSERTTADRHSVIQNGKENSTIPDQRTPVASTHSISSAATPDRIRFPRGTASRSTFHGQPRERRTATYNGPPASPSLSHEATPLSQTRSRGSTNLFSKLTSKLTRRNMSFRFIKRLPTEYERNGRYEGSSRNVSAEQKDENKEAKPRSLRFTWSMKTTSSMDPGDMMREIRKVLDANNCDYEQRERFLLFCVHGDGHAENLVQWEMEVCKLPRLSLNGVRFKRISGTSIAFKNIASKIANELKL

[5] = target: Mast/stem cell growth factor receptor Kit (Homo sapiens, UniProt P10721); experiment: Selectivity interaction (KinomeScan (DiscoverX)) EUB0001619a KIT; conditions: at 1 µM
Mast/stem cell growth factor receptor Kit, sequence (P10721 whole entry): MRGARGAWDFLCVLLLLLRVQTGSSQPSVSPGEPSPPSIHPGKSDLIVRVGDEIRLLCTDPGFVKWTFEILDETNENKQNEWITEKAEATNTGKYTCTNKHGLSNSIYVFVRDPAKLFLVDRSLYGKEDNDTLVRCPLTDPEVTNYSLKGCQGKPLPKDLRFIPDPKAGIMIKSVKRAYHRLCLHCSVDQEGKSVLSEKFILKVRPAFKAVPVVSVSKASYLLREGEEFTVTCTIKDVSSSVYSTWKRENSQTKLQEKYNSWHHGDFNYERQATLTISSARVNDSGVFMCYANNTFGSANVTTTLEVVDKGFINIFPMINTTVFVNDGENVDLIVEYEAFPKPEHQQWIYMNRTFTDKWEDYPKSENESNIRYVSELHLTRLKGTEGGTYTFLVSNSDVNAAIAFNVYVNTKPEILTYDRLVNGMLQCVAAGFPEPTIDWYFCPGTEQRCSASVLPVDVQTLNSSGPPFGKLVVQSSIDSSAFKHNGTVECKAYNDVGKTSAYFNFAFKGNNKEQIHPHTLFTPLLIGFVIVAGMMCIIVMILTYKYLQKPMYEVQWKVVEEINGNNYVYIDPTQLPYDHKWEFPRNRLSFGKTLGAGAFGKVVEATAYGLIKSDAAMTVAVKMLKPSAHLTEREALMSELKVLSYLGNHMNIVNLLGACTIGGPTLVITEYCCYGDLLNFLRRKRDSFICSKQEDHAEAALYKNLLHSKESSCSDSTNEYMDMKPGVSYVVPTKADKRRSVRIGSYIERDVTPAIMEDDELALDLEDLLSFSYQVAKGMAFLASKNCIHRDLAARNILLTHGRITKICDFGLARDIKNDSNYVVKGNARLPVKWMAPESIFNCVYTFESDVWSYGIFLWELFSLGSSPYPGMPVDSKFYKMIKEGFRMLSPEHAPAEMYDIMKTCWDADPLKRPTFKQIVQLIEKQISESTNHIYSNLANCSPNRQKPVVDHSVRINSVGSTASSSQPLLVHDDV

[6] = target: T3, Serine/threonine-protein kinase ULK1 (Homo sapiens) (UniProt O75385); experiment: Selectivity interaction (KinomeScan (DiscoverX)) EUB0001619a ULK1; conditions: at 1 µM
T3 sequence (whole entry): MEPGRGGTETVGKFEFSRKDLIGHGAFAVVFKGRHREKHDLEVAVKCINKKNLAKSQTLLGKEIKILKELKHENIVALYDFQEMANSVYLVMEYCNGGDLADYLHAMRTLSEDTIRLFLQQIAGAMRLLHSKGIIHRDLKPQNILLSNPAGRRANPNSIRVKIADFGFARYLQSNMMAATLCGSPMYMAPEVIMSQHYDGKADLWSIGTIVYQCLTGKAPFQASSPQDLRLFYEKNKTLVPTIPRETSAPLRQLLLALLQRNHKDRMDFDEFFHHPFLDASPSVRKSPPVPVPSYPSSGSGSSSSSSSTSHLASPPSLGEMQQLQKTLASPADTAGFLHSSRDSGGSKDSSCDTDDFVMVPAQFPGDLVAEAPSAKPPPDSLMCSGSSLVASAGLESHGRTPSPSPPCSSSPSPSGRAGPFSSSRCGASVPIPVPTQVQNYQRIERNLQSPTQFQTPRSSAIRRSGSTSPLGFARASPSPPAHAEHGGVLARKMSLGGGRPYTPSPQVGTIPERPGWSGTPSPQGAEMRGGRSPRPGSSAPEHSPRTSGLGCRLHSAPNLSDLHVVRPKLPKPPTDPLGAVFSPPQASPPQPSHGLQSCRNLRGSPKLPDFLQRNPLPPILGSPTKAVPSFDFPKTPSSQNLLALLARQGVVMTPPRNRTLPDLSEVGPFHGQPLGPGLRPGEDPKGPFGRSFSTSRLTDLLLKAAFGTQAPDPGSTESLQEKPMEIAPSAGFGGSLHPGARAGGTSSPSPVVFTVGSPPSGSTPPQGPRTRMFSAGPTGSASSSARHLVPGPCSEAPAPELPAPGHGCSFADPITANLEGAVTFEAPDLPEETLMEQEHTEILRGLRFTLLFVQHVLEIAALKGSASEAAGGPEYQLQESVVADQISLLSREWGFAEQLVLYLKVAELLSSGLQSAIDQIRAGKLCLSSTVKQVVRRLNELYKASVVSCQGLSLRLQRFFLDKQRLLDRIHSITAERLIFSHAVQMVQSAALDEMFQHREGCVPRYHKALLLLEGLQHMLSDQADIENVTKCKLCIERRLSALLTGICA

[7] = target: Ribosomal protein S6 kinase alpha-5 (Homo sapiens) (UniProt O75582); conditions: at 10 µM
Ribosomal protein S6 kinase alpha-5 (Homo sapiens), sequence (O75582 whole entry, looked up): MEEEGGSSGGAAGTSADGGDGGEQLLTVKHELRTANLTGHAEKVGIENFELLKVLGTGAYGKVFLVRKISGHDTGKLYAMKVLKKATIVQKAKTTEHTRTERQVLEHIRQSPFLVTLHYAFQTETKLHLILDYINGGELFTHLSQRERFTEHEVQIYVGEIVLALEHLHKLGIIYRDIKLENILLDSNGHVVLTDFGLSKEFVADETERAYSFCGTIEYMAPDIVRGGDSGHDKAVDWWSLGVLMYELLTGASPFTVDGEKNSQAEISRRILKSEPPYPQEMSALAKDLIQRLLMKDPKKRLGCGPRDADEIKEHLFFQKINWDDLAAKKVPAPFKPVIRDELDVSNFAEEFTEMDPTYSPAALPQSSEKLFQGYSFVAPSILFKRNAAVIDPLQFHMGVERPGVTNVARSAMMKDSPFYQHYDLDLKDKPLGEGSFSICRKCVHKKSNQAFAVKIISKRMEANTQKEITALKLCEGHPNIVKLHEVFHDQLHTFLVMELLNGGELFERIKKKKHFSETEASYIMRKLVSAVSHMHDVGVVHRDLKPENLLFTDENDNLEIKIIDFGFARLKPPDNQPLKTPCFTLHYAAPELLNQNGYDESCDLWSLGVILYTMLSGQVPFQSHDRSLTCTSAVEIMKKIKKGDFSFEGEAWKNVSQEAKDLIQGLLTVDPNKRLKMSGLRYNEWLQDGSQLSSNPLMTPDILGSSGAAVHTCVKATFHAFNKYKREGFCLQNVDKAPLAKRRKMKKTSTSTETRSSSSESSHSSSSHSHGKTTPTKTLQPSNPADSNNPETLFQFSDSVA

[8] = target: Mitogen-activated protein kinase 1 (Homo sapiens, UniProt P28482); experiment: Selectivity interaction (Upstate Kinase Profiler service (Millipore)) EUB0000056c MAPK1; conditions: at 1 µM
Mitogen-activated protein kinase 1, sequence (P28482 whole entry, the tested form may be a part): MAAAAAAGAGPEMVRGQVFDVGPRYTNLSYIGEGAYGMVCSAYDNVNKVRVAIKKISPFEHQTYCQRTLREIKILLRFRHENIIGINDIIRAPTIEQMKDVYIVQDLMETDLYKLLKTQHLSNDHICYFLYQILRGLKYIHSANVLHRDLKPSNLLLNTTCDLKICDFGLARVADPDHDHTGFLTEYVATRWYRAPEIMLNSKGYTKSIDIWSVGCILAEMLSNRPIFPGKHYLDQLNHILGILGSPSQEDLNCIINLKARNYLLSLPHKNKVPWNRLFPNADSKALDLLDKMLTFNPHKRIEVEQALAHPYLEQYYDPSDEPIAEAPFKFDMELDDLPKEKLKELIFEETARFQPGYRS

[9] = target: Phosphatidylinositol 4-phosphate 3-kinase C2 domain-containing subunit beta (Homo sapiens) (UniProt O00750); experiment: Selectivity interaction (Kinase panel (KiNativ target engagement assay in Jurkat cells)) EUB0001635a PIK3C2B; type: cell-based; conditions: Selectivity number of off-targets 0.0, Selectivity number of targets 233.0, Source Knowledge https://www.sciencedirect.com/science/article/pii/S2451945619300674?via%3Dihub, at 1 µM
Phosphatidylinositol 4-phosphate 3-kinase C2 domain-containing subunit beta (Homo sapiens), sequence (O00750 whole entry, the tested form may be a part): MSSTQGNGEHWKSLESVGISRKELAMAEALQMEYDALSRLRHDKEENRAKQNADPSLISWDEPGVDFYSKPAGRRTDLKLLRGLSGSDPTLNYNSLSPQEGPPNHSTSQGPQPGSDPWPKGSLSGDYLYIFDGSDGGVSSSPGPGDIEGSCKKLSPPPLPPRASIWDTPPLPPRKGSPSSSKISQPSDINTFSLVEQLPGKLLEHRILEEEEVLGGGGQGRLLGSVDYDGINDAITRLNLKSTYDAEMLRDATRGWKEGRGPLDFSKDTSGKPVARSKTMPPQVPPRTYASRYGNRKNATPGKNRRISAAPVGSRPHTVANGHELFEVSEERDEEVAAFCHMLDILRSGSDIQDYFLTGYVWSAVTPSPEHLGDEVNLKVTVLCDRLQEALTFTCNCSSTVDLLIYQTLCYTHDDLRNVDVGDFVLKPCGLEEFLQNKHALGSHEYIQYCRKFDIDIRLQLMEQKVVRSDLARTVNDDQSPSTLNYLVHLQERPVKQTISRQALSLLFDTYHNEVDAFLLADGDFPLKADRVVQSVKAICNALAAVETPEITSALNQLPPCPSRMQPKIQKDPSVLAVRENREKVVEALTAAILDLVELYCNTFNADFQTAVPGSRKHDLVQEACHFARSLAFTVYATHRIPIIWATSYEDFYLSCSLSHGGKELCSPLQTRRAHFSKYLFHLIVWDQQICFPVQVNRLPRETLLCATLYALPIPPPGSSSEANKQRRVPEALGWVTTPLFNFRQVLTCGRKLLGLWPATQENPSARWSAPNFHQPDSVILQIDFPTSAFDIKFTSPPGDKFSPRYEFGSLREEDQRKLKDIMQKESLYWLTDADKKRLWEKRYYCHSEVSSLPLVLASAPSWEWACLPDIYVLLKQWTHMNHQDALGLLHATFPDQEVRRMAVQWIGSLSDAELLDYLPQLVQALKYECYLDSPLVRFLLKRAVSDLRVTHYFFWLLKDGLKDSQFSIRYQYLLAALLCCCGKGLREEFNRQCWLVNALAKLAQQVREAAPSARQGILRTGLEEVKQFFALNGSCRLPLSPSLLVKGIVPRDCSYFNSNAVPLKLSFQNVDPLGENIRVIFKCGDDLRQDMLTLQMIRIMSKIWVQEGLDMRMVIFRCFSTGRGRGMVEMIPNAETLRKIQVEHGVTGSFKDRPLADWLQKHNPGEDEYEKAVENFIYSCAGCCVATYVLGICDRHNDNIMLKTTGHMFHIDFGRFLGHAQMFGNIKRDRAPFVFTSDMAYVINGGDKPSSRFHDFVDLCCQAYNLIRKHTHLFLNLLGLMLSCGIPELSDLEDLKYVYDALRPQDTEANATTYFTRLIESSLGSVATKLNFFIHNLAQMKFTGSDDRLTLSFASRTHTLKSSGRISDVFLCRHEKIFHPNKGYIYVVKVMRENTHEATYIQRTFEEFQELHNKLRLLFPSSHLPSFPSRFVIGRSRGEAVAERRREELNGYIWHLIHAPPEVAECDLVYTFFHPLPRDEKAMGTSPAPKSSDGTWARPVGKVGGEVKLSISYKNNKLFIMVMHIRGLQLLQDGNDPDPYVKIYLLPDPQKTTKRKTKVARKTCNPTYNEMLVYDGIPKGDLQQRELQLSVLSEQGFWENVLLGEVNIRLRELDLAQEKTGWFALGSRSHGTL

% of inhibition [1]: -4%
% of inhibition [2]: -13%
Structure (SMILES): CN1Cc2nccc(-c3cn(C)nc3-c3ccc(F)cc3)c2C1=O

Structure (SMILES): O[C@H]1CC[C@H](Nc2ncc3nc(Nc4c(F)cc(F)cc4F)n([C@H]4CCOC4)c3n2)CC1
% of control [3]: 100%

Structure (SMILES): CNC(=O)Nc1ccc(-c2nc(N3CC4CCC(C3)O4)c3cnn(C4CCC5(CC4)OCCO5)c3n2)cc1
% of control [4]: 92%

Structure (SMILES): N#Cc1cccc(-c2c[nH]c3ncnc(N4CCOCC4)c23)c1
% of control [5]: 100%
% of control [6]: 65%

Structure (SMILES): COCC(=O)NC/C=C/c1ccc2ncnc(Nc3ccc(Oc4ccc(C)nc4)c(C)c3)c2c1 [CP-724714]
% of control [7]: 98%

% of inhibition [8]: 1%
Structure (SMILES): Cc1ccc(-c2ccc3c(ccc4sc5c(c43)NC[C@@H](C)NC5=O)n2)cn1

Structure (SMILES): C=CC(=O)Nc1ccc(C(=O)Nc2[nH]nc3c2CN(C(=O)N[C@H](CN(C)C)c2ccccc2)C3(C)C)cc1
% of engagement [9]: -18.6%

— ChEMBL document CHEMBL5465560, “Selectivity Literature for EUbOPEN Chemogenomic Library” (2024)
